From patent US20220016205A1, “METHODS OF OVERCOMING RESISTANCE TO IMMUNE CHECKPOINT INHIBITORS” (Board of Regents, The University of Texas System, priority 2018, published 2022)

Tests used:
peritoneal macrophages [1] = test: qPCR in peritoneal macrophages co-cultured with 344SQR cells (transwell) with follistatin or K02288; type: cell-based, mouse; details: 344SQR co-culture plus K02288 compared with 344SQR only (FIG. 3F)
RAW 264.7 cells [2] = test: qPCR in RAW 264.7 cells co-cultured with 344SQR cells (transwell) with follistatin or K02288; type: cell-based, murine; details: 344SQR co-culture plus K02288 compared with 344SQR only (FIG. 3E)
Excerpt: (§1) Quantitative polymerase chain reaction (qPCR). Total RNA was isolated from cells and tumors with Triazol (Life Technologies) according to the manufacturer's protocol. For studies of BMP7, p38α, IL-1α, IL-1β, TNF-α, RANTES, IL-2, and IFN-γ expression, mRNA was retrotranscribed with the iScript™ gDNA Clear cDNA Synthesis Kit (BioRad) and analyzed by qPCR using SYBR Green (Life Technologies) with specific primers according to the manufacturer's protocol. The comparative Ct method was used to calculate the relative abundance of mRNAs compared with ACTB (beta-actin) expression for cancer cells or CD45 expression for immune cells.
Co-culture experiments and treatments. Viable cells were counted with a hemocytometer (0.4% Trypan blue solution) and diluted to 40,000 cells per well in 24-wells plates. Cells from 344SQP, 344SQR, 344SQ ctrl, or 344SQ-shBMP7 tumors were seeded at the top inserts (24-mm Transwell with 0.4-μm pore polycarbonate membrane insert, Sigma-Aldrich), and RAW 264.7 or CD4^+ T cells were seeded at the bottom of the transwell system. […] RNA was then isolated from RAW 264.7 or CD4^+ T cells and analyzed for p38α, IL-1α, IL-1β, TNF-α, RANTES, IL-2 and IFN-γ expression with qPCR. […]

T-cell = details: Crawley et al., 1997; cited from earlier work
T lymphocytes = details: Matsuda et al., 1998; cited from earlier work
344SQR shBMP7 tumors = test: Tumor growth, survival and TIL flow cytometry of mice with 344SQR shBMP7 (BMP7-knockdown) tumors treated with checkpoint antibodies; type: in vivo, 129Sv/Ev mice; details: antibody 10 mg/kg twice a week for 2 weeks in combination with BMP7 knockdown, compared with control (FIGS. 5A, 5I, 5J)
Experimental: In vivo studies. All mouse studies were approved by the Institutional Animal Care and Use Committee (IACUC) of The University of Texas MD Anderson Cancer Center before their initiation; animal care was provided according to IACUC standards, and all mice had been bred and were maintained in our own specific pathogen-free mouse colony. For RRBS, RPPA and TILs studies, primary tumors were established by subcutaneous injection of 344SQP or 344SQR cells (0.5×10^6 in 100 μL of sterile phosphate buffered saline [PBS]) into the leg of syngeneic 129Sv/Ev mice (female, 12-16 weeks old). Mice were then given intraperitoneal injections of anti-PD1 or control IgG antibodies (10 mg/kg) (Bio X cell), starting on day 4 after tumor cell inoculation and continuing twice per week for a total of 4 doses. At 24 hours after the last anti-PD1 treatment, tumor tissues were collected for DNA (2 mice/group) and protein isolation (2 or 3 mice/group). For TILs isolation, tumor tissues (3 mice/group) were collected a week after the last treatment with anti-PD1. […] Tumors were measured with calipers three times per week and recorded as tumor volume (in mm^3)=width^2×length/2. […] Mouse survival rates were analyzed by using the Kaplan-Meier method and compared with log-rank tests.
Tissue processing and flow cytometry. […] All samples were analyzed with an LSRII flow cytometer and FlowJo software (version 10.0.7). […]

RAW 264.7 cells [3] = test: p38a silencing with siRNAs in RAW 264.7 cells, qPCR / expression analysis; type: cell-based, murine; details: BMP7 treatment of cells treated with siRNAs targeting p38a (FIG. 3K)
Excerpt: as §1
Transfection siRNA. siRNA targeting p38a (Life Technologies, Cat #4390771) and its respective negative-control negative control (Life Technologies, Cat #4390843) were reverse-transfected into RAW 264.7 macrophages with Lipofectamine 2000 (Life Technologies) to a final concentration of […].

RAW 264.7 cells [4] = test: qPCR of p38α, IL-1α, IL-1β, TNF-α, RANTES in RAW 264.7 cells treated with BMP7 or BMP7 plus follistatin; type: cell-based, murine; details: BMP7 compared to untreated control, 24 or 48 hours (FIG. 3G)
Excerpt: as §1
(§2) Co-culture experiments and treatments. Viable cells were counted with a hemocytometer (0.4% Trypan blue solution) and diluted to 40,000 cells per well in 24-wells plates. Cells from 344SQP, 344SQR, 344SQ ctrl, or 344SQ-shBMP7 tumors were seeded at the top inserts (24-mm Transwell with 0.4-μm pore polycarbonate membrane insert, Sigma-Aldrich), and RAW 264.7 or CD4^+ T cells were seeded at the bottom of the transwell system. […] RNA was then isolated from RAW 264.7 or CD4^+ T cells and analyzed for p38α, IL-1α, IL-1β, TNF-α, RANTES, IL-2 and IFN-γ expression with qPCR.

CD4^+ T cells = test: qPCR of p38α, IFN-γ, IL-2 in activated CD4+ T cells treated with BMP7 or BMP7 plus follistatin; type: cell-based, mouse
Excerpt: as §1
Co-culture experiments and treatments. Viable cells were counted with a hemocytometer (0.4% Trypan blue solution) and diluted to 40,000 cells per well in 24-wells plates. Cells from 344SQP, 344SQR, 344SQ ctrl, or 344SQ-shBMP7 tumors were seeded at the top inserts (24-mm Transwell with 0.4-μm pore polycarbonate membrane insert, Sigma-Aldrich), and RAW 264.7 or CD4^+ T cells were seeded at the bottom of the transwell system. CD4^+ T cells were isolated from splenocytes by using Dynabeads Untouched Mouse CD4 Cells Kit (Thermo Fisher Scientific—Life Technologies, Catalog #11416D) and activated with LEAF purified anti-mouse CD3c antibody (5 μg/mL) and LEAF purified anti-mouse CD28 antibody (1 μg/mL) (Biolegend). […] RNA was then isolated from RAW 264.7 or CD4^+ T cells and analyzed for p38α, IL-1α, IL-1β, TNF-α, RANTES, IL-2 and IFN-γ expression with qPCR.
Next, CD4^+ T cells were co-cultured with 344SQP or 344SQR cells, and 344SQR ctrl or 344SQR shBMP7 cells, and the expression of p38α, IFN-γ, and IL-2 analyzed. […] To confirm that these findings depended on BMP7 and not on some other secreted molecule, CD4^+ T cells were treated with BMP7 with or without follistatin and p38α, IFN-γ, and IL-2 expression evaluated. […]

peritoneal macrophages [5] = test: qPCR of p38α, IL-1α, IL-1β, TNF-α, RANTES in peritoneal macrophages treated with BMP7 or BMP7 plus follistatin; type: cell-based, mouse; details: BMP7 compared to untreated control (FIG. 3G)
Excerpt: as §1, §2

COc1cc(-c2cc(-c3cccc(O)c3)cnc2N)cc(OC)c1OC [K02288, reference compound]
expression of p38a and p38α-regulated cytokines and chemokines (peritoneal macrophages [1]): lower expression | expression of p38a and p38α-regulated cytokines and chemokines (RAW 264.7 cells [2]): lower expression

C[S+]([O-])c1ccc(-c2nc(-c3ccncc3)c(-c3ccc(F)cc3)[nH]2)cc1 (stereo not shown) [SB203580]
T-cell proliferation in response to IL-2 (T-cell): suppressed T-cell proliferation | transcriptional activation of the IL-2 promoter (T lymphocytes): suppressed the transcriptional activation

anti-PDL1: anti-PDL1 (Durvalumab, Pharmacy MD Anderson)
survival (344SQR shBMP7 tumors): increased survival

B1: BMP7: bone morphogenetic protein (BMP)-7, secreted protein of the TGF-β superfamily (R&D Systems, Catalog #5666-BP-010) (protein, UniProt P18075 293-431, looked up)
Bone morphogenetic protein 7: STGSKQRSQNRSKTPKNQEALRMANVAENSSSDQRQACKKHELYVSFRDLGWQDWIIAPEGYAAYYCEGECAFPLNSYMNATNHAIVQTLVHFINPETVPKPCCAPTQLNAISVLYFDDSSNVILKKYRNMVVRACGCH
expression of TNF-α, IL1-β, and CD206 (RAW 264.7 cells [3]): did not alter | expression of p38a and p38α-regulated cytokines and chemokines (RAW 264.7 cells [4]): lower expression | p38α expression (CD4^+ T cells; effect of BMP7): led to changes | IFN-γ and IL-2 expression (CD4^+ T cells; effect of BMP7, via p38α): decreased | expression of p38a and p38α-regulated cytokines and chemokines (peritoneal macrophages [5]): lower expression
